# Laboratory results published in US20090131512A1, “Inhibition of type I in IFN production” (Dynavax Technologies Corp., priority 2007, published 2009).
# “Also recorded” adds a separate entry of the source.
# Experiments:
# purified human pDC = assay: IFN-α production by TLR-activated purified pDC, ELISA; type: cell-based; details: for IFN-α production: subunit-specific PI3K inhibitors
# purified pDC [1] = assay: pDC viability, flow cytometry based LIVE/DEAD assay; type: cell-based, human; details: CpG-C 1 μM plus various concentrations of LY; 20 h; listed as LY
# Description: Purified pDC were stimulated with CpG-C ISS (1 μM) either alone or in combination with various concentration of PI3K inhibitor LY. After 20 h, viability was assessed using a flow cytometry based viability assay (LIVE/DEAD Viability/Cytotoxicity Kit from Molecular Probe). Average of […] independent donors is shown.
# purified pDC [2] = assay: IL-6 and TNF-α production by TLR-activated pDC, ELISA and real-time PCR; type: cell-based, human; details: CpG-A or CpG-B 0.5 μM; 16 hr; ELISA
# NF-kB p65 (pS529) = assay: NF-kB p65 phosphorylation in pDC, flow cytometry; type: cell-based, human; details: CpG-C 1 μM; LY 1 or 5 μM, NF-kB inhibitor 0.5 μM; 90 min
# Description: Accordingly, purified PDC were cultured with CpG-C ISS (1 μM) with or without PI3K inhibitor LY (1 μM or 5 μM) or NF-kB inhibitor (0.5 μM) for 90 min and analyzed by NF-kB flow cytometry. As described above, negatively purified pDC were stimulated with CpG-C and cells were immediately fixed with 4% of paraformaldehyde for 15 min a 37 C. Cells were then washed, permeabilized with PermBuffer III (BD bioscience) for 30 minutes on ice and stained with either Alexa-647 anti-human NF-kB p65 (pS529) for 30 min and then analyzed by flow cytometry.
compound,measurement,setting,value
O=C1NC(=O)/C(=C/c2ccc3c(c2)OC(F)(F)O3)S1 [AS604850],concentration at which an effect on IFN-α production is observed,"purified human pDC; CpG-C 1 μM, 16 hr, specificity for gamma subunit lost",> 20 µM
same,IFN-α production,"purified human pDC; CpG-C 1 μM, 16 hr",did not observe any effect
Cc1ccccc1-n1c(Cn2cnc3c(N)ncnc32)nc2cccc(C)c2c1=O [IC87114],IFN-α production,"purified human pDC; CpG-C 1 μM, 16 hr",inhibited
O=c1cc(N2CCOCC2)oc2c(-c3ccccc3)cccc12 [LY294002],inhibition of IFN-α,"purified human pDC; LY concentrations as low as 0.08 μM, TLR9",50%
same,concentration of maximal effect on IFN-α production,"purified human pDC; both TLR7 and TLR9 ligands, 16 hr",1.25 µM
same,pDC viability,purified pDC [1],no negative effect; also recorded: does not affect
same,IL-6 production in response to CpG-A and CpG-B,purified pDC [2],no significant inhibition
NC(=O)Nc1sc(-c2ccc(F)cc2)cc1C(N)=O [NF-kB inhibitor],NF-kB phosphorylation,NF-kB p65 (pS529),inhibited
